How the values were obtained:
CHO-K1 cells = test: Toxicity in RRA (loss of luciferase signal); settings: toxicity = loss of signal (<0.75 fold increase)
Protocol: The beta amyloid inhibitory activity of the compounds of the present invention was determined using the Repressor Release Assay (RRA).
“Fold Increase” refers to the amount of luciferase activity (measured in relative light units) over diluent control. “SEM” refers to the standard error of the mean for fold increase.

beta amyloid production = test: Repressor Release Assay (RRA); format: cell-based; settings: for fold induction at 10 µg/mL / APPI Fold Increase / APPI % of Example #98: Conc 10 μg/ml; for fold induction at 10 µg/mL / APPI Fold Increase / fold induction at 20 µg/mL: luciferase activity over diluent control; for fold induction at 10 µg/mL / fold induction at 20 µg/mL: read-out: APPI Fold Increase; for APPI % of Example #98: relative to Example 98; for fold induction at 20 µg/mL: Conc 20 μg/ml
Procedure, shortened: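 CHO-K1 cells transiently co-transfected with pRSVO-luc and an APP-lacI construct, replated, then treated in duplicate for 36-48 h at 37 °C, 5% CO2. Compounds diluted in 25 mM Hepes, with Hepes/1% DMSO as diluent control. Luciferase read-out in relative light units; toxicity scored 1 non-toxic, 0 toxic.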

Structure (SMILES) | (%)APPI Toxicity (CHO-K1 cells; Conc 10 μg/ml) | fold induction at 10 µg/mL (beta amyloid production) | APPI Fold Increase (beta amyloid production) [fold] | APPI % of Example #98 (beta amyloid production) [%] | (%)APPI Toxicity (CHO-K1 cells; Conc 20 μg/ml) | fold induction at 20 µg/mL (beta amyloid production)
CC[C@H](C)[C@H](NS(=O)(=O)c1ccccc1F)C(O)c1ccc(F)cc1 (stereo partly drawn) [Example 207, 2-fluoro-N-{(1S,2S)-1-[(4-fluorophenyl) (hydroxy)methyl]-2-methylbutyl}benzenesulfonamide] | 1 (1=non-toxic) | 1.81 | – | – | – | –
CC[C@H](C)[C@H](NS(=O)(=O)c1ccccc1F)C(O)c1ccc(Cl)cc1 (stereo partly drawn) [Example 208, N-{(1S,2S)-1-[(4-chlorophenyl) (hydroxy)methyl]-2-methylbutyl}-2-fluorobenzenesulfonamide] | 1 (1=non-toxic) | 2.01 | – | – | – | –
CC[C@H](C)[C@H](NS(=O)(=O)c1ccccc1F)C(O)c1ccc(OC)cc1 (stereo partly drawn) [Example 209, 2-fluoro-N-{(1S,2S)-1-[hydroxy(4-methoxyphenyl)methyl]-2-methylbutyl} benzenesulfonamide] | 1 (1=non-toxic) | – | 1.81 | 88.04 | – | –
CC[C@H](C)[C@H](NS(=O)(=O)c1ccccc1F)C(O)CCC1OCCCO1 (stereo partly drawn) [Example 210, N-{(1S)-4-(1,3-dioxan-2-yl)-2-hydroxy-1-[(1S)-1-methylpropyl]butyl}-2-fluorobenzenesulfonamide] | 1 (1=non-toxic) | 1.68 | – | – | – | –
CC[C@H](C)[C@H](NS(=O)(=O)c1ccc(Br)cc1)C(C)(C)O [Example 211] | 1 (1=non-toxic) | 2.09 | – | – | – | –
CCCCC(O)(CCCC)[C@@H](NS(=O)(=O)c1ccc(Br)cc1)[C@@H](C)CC [Example 213, 4-bromo-N-{(1S)-2-butyl-2-hydroxy-1-[(1S)-1-methylpropyl]hexyl}benzenesulfonamide] | 1 (1=non-toxic) | 3.03 | – | – | – | –
CC[C@H](C)[C@H](NS(=O)(=O)c1ccc(Br)cc1)C(O)(c1ccccc1)c1ccccc1 [Example 215, 4-bromo-N-{(1S,2S)-1-[hydroxy(diphenyl)methyl]-2-methylbutyl}benzenesulfonamide] | 1 (1=non-toxic) | 1.65 | – | – | – | –
CC[C@H](C)[C@H](NS(=O)(=O)c1ccc(Br)cc1)C(O)(CC)CC [Example 217, 4-bromo-N-{(1S)-2-ethyl-2-hydroxy-1-[(1S)-1-methylpropyl]butyl}benzenesulfonamide] | 1 (1=non-toxic) | 1.68 | – | – | – | –
CC[C@H](C)[C@H](NS(=O)(=O)c1ccc(Br)cc1)C(O)(c1ccc(Cl)cc1)c1ccc(Cl)cc1 [Example 218, N-{(1S,2S)-1-[bis(4-chlorophenyl) (hydroxy)methyl]-2-methylbutyl}-4-bromobenzenesulfonamide] | 1 (1=non-toxic) | 1.55 | – | – | – | –
C=C(C)C(O)(C(=C)C)[C@@H](NS(=O)(=O)c1ccc(Br)cc1)[C@@H](C)CC [Example 219, 4-bromo-N-{(1S)-2-hydroxy-2-isopropenyl-3-methyl-1-[(1S)-1-methylpropyl]-3-butenyl}benzenesulfonamide] | 1 (1=non-toxic) | 1.8 | – | – | 1 (1=non-toxic) | 2.8
C/C=C(\C)C(O)(/C(C)=C/C)[C@@H](NS(=O)(=O)c1ccc(Br)cc1)[C@@H](C)CC (stereo partly drawn) [Example 220, 4-bromo-N-{(1S,3E)-2-hydroxy-3-methyl-2-[(1E)-1-methyl-1-propenyl]-1-[(1S)-1-methylpropyl]-3-pentenyl}benzenesulfonamide] | 1 (1=non-toxic) | 3.29 | – | – | – | –
C=CCCC(O)(CCC=C)[C@@H](NS(=O)(=O)c1ccc(Br)cc1)[C@@H](C)CC [Example 221, 4-bromo-N-{(1S)-2-(3-butenyl)-2-hydroxy-1-[(1S)-1-methylpropyl]-5-hexenyl}benzenesulfonamide] | 1 (1=non-toxic) | 5.73 | – | – | – | –
CC[C@H](C)[C@H](NS(=O)(=O)c1ccc(Br)cc1)C(O)(c1cccc2ccccc12)c1cccc2ccccc12 [Example 222, 4-bromo-N-((1S,2S)-1-{hydroxy[di(1-naphthyl)]methyl}-2-methylbutyl) benzenesulfonamide] | 1 (1=non-toxic) | – | 1.59 | 54.46 | – | –
CC[C@H](C)[C@H](NS(=O)(=O)c1ccc(Cl)cc1)C(C)(C)O [Example 223, 4-chloro-N-[(1S,2S)-1-(1-hydroxy-1-methylethyl)-2-methylbutyl]benzenesulfonamide] | 1 (1=non-toxic) | 2.33 | – | – | – | –
CCCCCCC(O)(CCCCCC)[C@@H](NS(=O)(=O)c1ccc(Cl)cc1)[C@@H](C)CC [Example 224, 4-chloro-N-{(1S)-2-hexyl-2-hydroxy-1-[(1S)-1-methylpropyl]octyl}benzenesulfonamide] | 1 (1=non-toxic) | 2.22 | – | – | – | –
CCCCC(O)(CCCC)[C@@H](NS(=O)(=O)c1ccc(Cl)cc1)[C@@H](C)CC [Example 225, N-{(1S)-2-butyl-2-hydroxy-1-[(1S)-1-methylpropyl]hexyl}-4-chlorobenzenesulfonamide] | 1 (1=non-toxic) | 6.82 | – | – | – | –
CC[C@H](C)[C@H](NS(=O)(=O)c1ccc(Cl)cc1)C(O)(CC(C)C)CC(C)C [Example 226, 4-chloro-N-{(1S)-2-hydroxy-2-isobutyl-4-methyl-1-[(1S)-1-methylpropyl]pentyl}benzenesulfonamide] | 1 (1=non-toxic) | 4.6 | – | – | – | –
CC[C@H](C)[C@H](NS(=O)(=O)c1ccc(Cl)cc1)C(O)(c1ccccc1)c1ccccc1 [Example 227, 4-chloro-N-{(1S,2S)-1-[hydroxy(diphenyl)methyl]-2-methylbutyl}benzenesulfonamide] | 1 (1=non-toxic) | 1.65 | – | – | – | –
C=CCC(O)(CC=C)[C@@H](NS(=O)(=O)c1ccc(Cl)cc1)[C@@H](C)CC [Example 228, N-{(1S)-2-allyl-2-hydroxy-1-[(1S)-1-methylpropyl]-4-pentenyl}-4-chloro benzenesulfonamide] | 1 (1=non-toxic) | – | 1.56 | 71.57 | – | –
CC[C@H](C)[C@H](NS(=O)(=O)c1ccc(Cl)cc1)C(O)(CC)CC [Example 229, 4-chloro-N-{(1S)-2-ethyl-2-hydroxy-1-[(1S)-1-methylpropyl]butyl}benzenesulfonamide] | 1 (1=non-toxic) | 1.52 | – | – | – | –
C=C(C)C(O)(C(=C)C)[C@@H](NS(=O)(=O)c1ccc(Cl)cc1)[C@@H](C)CC [Example 230, 4-chloro-N-{(1S)-2-hydroxy-2-isopropenyl-3-methyl-1-[(1S)-1-methylpropyl]-3-butenyl}benzenesulfonamide] | 1 (1=non-toxic) | 1.75 | – | – | 1 (1=non-toxic) | 1.9
CC[C@H](C)[C@H](NS(=O)(=O)c1ccc(Cl)cc1)C(O)(c1ccc(OC)cc1)c1ccc(OC)cc1 [Example 231, 4-chloro-N-((1S,2 S)-1-{hydroxy [bis(4-methoxyphenyl)]methyl}-2-methylbutyl)benzenesulfonamide] | 1 (1=non-toxic) | 2.49 | – | – | – | –

Source: patent publication US7166622B2, “Substituted phenylsulfonamide inhibitors of beta amyloid production” (Wyeth, priority 2002, dated 2007)
